Literature values as cited in US20090011059A1, “Ginger Extract For Inhibiting Human Drug Transporters” (priority 2005, published 2009).

Settings: not given

| oral availability | Compound |
| --- | --- |
| 15% | CO[C@H]1C[C@@H]2CC[C@@H](C)[C@@](O)(O2)C(=O)C(=O)N2CCCC[C@H]2C(=O)O[C@H]([C@H](C)C[C@@H]2CC[C@@H](O)[C@H](OC)C2)CC(=O)[C@H](C)/C=C(\C)[C@@H](O)[C@@H](OC)C(=O)[C@H](C)C[C@H](C)/C=C/C=C/C=C/1C [Sirolimus] |
| 16% | C=CC[C@@H]1/C=C(\C)C[C@H](C)C[C@H](OC)[C@H]2O[C@@](O)(C(=O)C(=O)N3CCCC[C@H]3C(=O)O[C@H](/C(C)=C/[C@@H]3CC[C@@H](O)[C@H](OC)C3)[C@H](C)[C@@H](O)CC1=O)[C@H](C)C[C@@H]2OC [Tacrolimus] |
| 4% | CC[C@H](C)C(=O)O[C@H]1C[C@@H](C)C=C2C=C[C@H](C)[C@H](CC[C@@H]3C[C@@H](O)CC(=O)O3)[C@H]21 [Lovastatin] |
| 42% | CC[C@@]1(O)C(=O)OCc2c1cc1n(c2=O)Cc2cc3c(CN(C)C)c(O)ccc3nc2-1 [Topotecan] |
| 8% | CC(=O)O[C@@]12CO[C@@H]1C[C@H](O)[C@@]1(C)C(=O)[C@H](O)C3=C(C)[C@@H](OC(=O)[C@H](O)[C@@H](NC(=O)OC(C)(C)C)c4ccccc4)C[C@@](O)([C@@H](OC(=O)c4ccccc4)[C@H]21)C3(C)C [Docetaxel] |

Settings: in vivo

| increase of the plasma exposure of cyclosporin A | Compound |
| --- | --- |
| roughly two-fold | vitamin E |
